Laboratory results reported in ChEMBL document CHEMBL1127699, “Inhibitors of acyl-CoA:cholesterol acyltransferase. 1. Synthesis and hypocholesterolemic activity of dibenz[b,e]oxepin-11-carboxanilides” (J Med Chem, 1994).

Experiments:
[1] = target: T1, Acyl-CoA:cholesterol acyltransferase (Oryctolagus cuniculus, UniProt Q95214); assay: In vitro inhibitory activity against acyl coenzyme A:cholesterol acyltransferase in liver microsomes isolated from cholesterol-fed rabbits; set-up: species or system Microsome
T1 sequence (Q95214 whole entry): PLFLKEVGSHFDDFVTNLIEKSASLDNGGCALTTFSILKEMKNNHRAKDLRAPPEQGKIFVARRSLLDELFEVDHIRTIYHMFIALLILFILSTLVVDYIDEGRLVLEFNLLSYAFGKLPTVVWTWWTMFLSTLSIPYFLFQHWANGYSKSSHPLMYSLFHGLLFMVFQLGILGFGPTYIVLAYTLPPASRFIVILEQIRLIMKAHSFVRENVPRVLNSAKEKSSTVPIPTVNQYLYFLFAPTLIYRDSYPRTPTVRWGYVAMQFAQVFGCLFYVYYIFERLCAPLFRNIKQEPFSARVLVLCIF

Cricetinae gen. sp. [2] = assay: (§1) In vivo hypocholesterolemic activity in golden hamsters, fed with a diet containing 2% cholesterol at a dose of 30 mg/kg, po; format: functional, Mesocricetus auratus
Cricetinae gen. sp. [3] = assay: In vivo hypocholesterolemic activity in golden hamsters, fed with a diet containing 2% cholesterol at a dose of 100 mg/kg; format: functional, Mesocricetus auratus
Mesocricetus auratus = assay: In vivo hypocholesterolemic activity in golden hamsters, fed with a diet containing 2% cholesterol at a dose of 30 mg/kg, po
Rattus norvegicus [4] = assay: Effect on serum cholesterol levels in male Dawley rats at a dose of 1 mg/kg/day, po (p<=0.05); format: functional
Rattus norvegicus [5] = assay: Effect on serum cholesterol levels in male Dawley rats at a dose of 10 mg/kg/day, po (p<=0.01); format: functional
Rattus norvegicus [6] = assay: Effect on liver cholesterol levels in male Dawley rats at a dose of 1 mg/kg/day, po (p<=0.01); format: functional
Rattus norvegicus [7] = assay: Effect on liver cholesterol levels in male Dawley rats at a dose of 10 mg/kg/day, po (p<=0.01); format: functional
Cricetinae gen. sp. [8] = assay: (§2) In vivo hypocholesterolemic activity in golden hamsters, fed with a diet containing 2% cholesterol at a dose of 10 mg/kg, po; format: functional
Rattus norvegicus [9] = assay: Effect on serum cholesterol levels in male Dawley rats at a dose of 3 mg/kg/day, po (p<=0.01); format: functional
Rattus norvegicus [10] = assay: Effect on liver cholesterol levels in male Dawley rats at a dose of 30 mg/kg/day, po (p<=0.01); format: functional
Rattus norvegicus [11] = assay: Effect on liver cholesterol levels in male Dawley rats at a dose of 3 mg/kg/day, po (p<=0.01); format: functional
Rattus norvegicus [12] = assay: Effect on serum cholesterol levels in male Dawley rats at a dose of 30 mg/kg/day, po (p<=0.01); format: functional
Cricetinae gen. sp. [13] = assay: as §2; format: functional, Mesocricetus auratus
Cricetinae gen. sp. [14] = assay: as §1; format: functional, Cricetulus griseus
[15] = target: T2, Acyl-CoA:cholesterol acyltransferase (Oryctolagus cuniculus) (UniProt Q95214); assay: In vitro inhibitory activity against Acyl coenzyme A:cholesterol acyltransferase in liver microsomes isolated from cholesterol-fed rabbits; conditions: Microsome, concentration not given here
T2 sequence (whole entry): T1 sequence (Q95214 whole entry)

[16] = target: T2, Acyl-CoA:cholesterol acyltransferase (Oryctolagus cuniculus); assay: In vitro inhibitory activity against Acyl coenzyme A:cholesterol acyltransferase in liver microsomes isolated from cholesterol-fed rabbits at 1 uM; conditions: Microsome

IC50 [1] [nM] | SMILES | Reduction (Cricetinae gen. sp. [3]) [%] | also measured
120 | Cc1ccc2c(c1)C(C(=O)Nc1c(C(C)C)cccc1C(C)C)c1cc(Br)ccc1CO2 (configuration not stated) | – | Reduction (Mesocricetus auratus): 17%
400 | CC(C)c1cccc(C(C)C)c1NC(=O)C1c2ccccc2COc2ccc(C(=O)N(C)C)cc21 (configuration not stated) | – | –
490 | CC(C)c1cccc(C(C)C)c1NC(=O)C1c2ccccc2COc2ccc(C#N)cc21 (configuration not stated) | – | eduction (Cricetinae gen. sp. [14]): -6%
180 | COC(=O)c1ccc2c(c1)C(C(=O)Nc1c(C(C)C)cccc1C(C)C)c1ccccc1CO2 (configuration not stated) | 89 | –
180 | CC(C)c1cccc(C(C)C)c1NC(=O)C1c2ccccc2COc2cc(Br)ccc21 (configuration not stated) | -2 | –
210 | CC(C)c1cccc(C(C)C)c1NC(=O)C1c2ccccc2COc2ccc(F)cc21 (configuration not stated) | 53 | –
580 | CC(C)c1cccc(C(C)C)c1NC(=O)C1c2ccccc2COc2ccc(CO)cc21 (configuration not stated) | – | –
50 | Cc1ccc2c(c1)C(C(=O)Nc1c(C(C)C)cccc1C(C)C)c1ccccc1CO2 (configuration not stated) | 106 | Reduction (Mesocricetus auratus): 70%
190 | CC(C)c1cccc(C(C)C)c1NC(=O)C1c2cc(Br)ccc2COc2ccccc21 (configuration not stated) | – | Reduction (Mesocricetus auratus): 8%
140 | COc1ccc2c(c1)C(C(=O)Nc1c(C(C)C)cccc1C(C)C)c1ccccc1CO2 (configuration not stated) | – | Reduction (Mesocricetus auratus): 22%
160 | CC(C)c1cccc(C(C)C)c1NC(=O)C1c2ccccc2COc2ccc(C(F)(F)F)cc21 (configuration not stated) | – | Reduction (Mesocricetus auratus): 63%
240 | CC(C)c1cccc(C(C)C)c1NC(=O)C1c2ccccc2COc2ccc([N+](=O)[O-])cc21 (configuration not stated) | – | –
64 | Cc1cc2c(cc1C)C(C(=O)Nc1c(C(C)C)cccc1C(C)C)c1ccccc1CO2 (configuration not stated) | – | Reduction (Mesocricetus auratus): 27%
150 | CC(C)c1cccc(C(C)C)c1NC(=O)C1c2ccccc2COc2ccc(Cl)cc21 (configuration not stated) | 97 | –
100 | Cc1cc(Br)c2c(c1)C(C(=O)Nc1c(C(C)C)cccc1C(C)C)c1ccccc1CO2 (configuration not stated) | – | Reduction (Mesocricetus auratus): 67%
7 | CSc1ccc2c(c1)C(C(=O)Nc1c(C(C)C)cccc1C(C)C)c1ccccc1CO2 (configuration not stated) | – | Reduction (Mesocricetus auratus): 5%
58 | CC(C)c1cccc(C(C)C)c1NC(=O)C1c2cc(Br)ccc2COc2ccc(Br)cc21 (configuration not stated) | – | Reduction (Mesocricetus auratus): 40%
35 | CC(C)c1cccc(C(C)C)c1NC(=O)C1c2ccccc2COc2ccc(I)cc21 (configuration not stated) | – | Reduction (Mesocricetus auratus): 73%
94 | CC(C)c1cccc(C(C)C)c1NC(=O)C1c2ccccc2COc2ccccc21 (configuration not stated) | 2 | –
130 | CCc1ccc2c(c1)C(C(=O)Nc1c(C(C)C)cccc1C(C)C)c1ccccc1CO2 (configuration not stated) | 51 | –

The next lines start with the compound.

SMILES | IC50 [1] [nM] | Reduction (Cricetinae gen. sp. [3]) [%] | also measured
CC(C)c1cccc(C(C)C)c1NC(=O)C1c2ccccc2C=Cc2ccccc21 | 25 | – | Reduction (Cricetinae gen. sp. [2]): 73%
CCc1cccc(CC)c1NC(=O)C1c2ccccc2COc2ccc(C(C)C)cc21 (configuration not stated) | 500 | 25 | –
CC(C)c1cccc(C(C)C)c1NC(=O)C1c2ccccc2COc2ccc(Br)cc21 (configuration not stated) | 23 | 143 | Cholesterol level (Rattus norvegicus [4]): 214 mg/dL; Cholesterol level (Rattus norvegicus [5]): 114 mg/dL; Cholesterol level (Rattus norvegicus [6]): 19.2 mg/g; Cholesterol level (Rattus norvegicus [7]): 10.4 mg/g; Reduction (Cricetinae gen. sp. [8]): 101%; Reduction (Mesocricetus auratus): 114%; Cholesterol level (Rattus norvegicus [9]): 167 mg/dL; Cholesterol level (Rattus norvegicus [10]): 6.3 mg/g; Cholesterol level (Rattus norvegicus [11]): 15 mg/g; Cholesterol level (Rattus norvegicus [12]): 108 mg/dL
CCCCCCCN(Cc1ccc(CC(C)(C)C)cc1)C(=O)Nc1ccc(F)cc1F [CL-277082] | – | – | Reduction (Cricetinae gen. sp. [13]): 35%; Reduction (Cricetinae gen. sp. [2]): 71%
Cc1cc(C)c(NC(=O)C2c3ccccc3COc3ccc(C)cc32)c(C)c1 (configuration not stated) | 110 | – | –
COc1cc(OC)c(NC(=O)C2c3ccccc3COc3ccc(C)cc32)c(OC)c1 (configuration not stated) | 580 | – | –
CC(C)c1cccc(C(C)C)c1NC(=O)C1c2ccccc2CSc2ccc(Br)cc21 (configuration not stated) | 150 | – | Reduction (Cricetinae gen. sp. [2]): 67%
CC(C)c1cccc(C(C)C)c1/N=C(\S)C1c2ccccc2COc2ccc(Br)cc21 (configuration not stated) | – | – | inhibition [15]: 33%
Cc1ccc2c(c1)C(C(=O)Nc1ccccc1)c1ccccc1CO2 (configuration not stated) | – | 10 | inhibition [15]: 15%
Cc1ccc2c(c1)C(C(=O)Nc1c(Br)cccc1Br)c1ccccc1CO2 (configuration not stated) | 190 | 6 | –
O=C(Nc1c(Cl)cccc1Cl)C1c2ccccc2COc2ccc(Br)cc21 (configuration not stated) | 74 | – | Reduction (Mesocricetus auratus): 0%
COC(=O)c1cc(C)cc2c1OCc1ccccc1C2C(=O)Nc1c(C(C)C)cccc1C(C)C (configuration not stated) | 27 | – | Reduction (Cricetinae gen. sp. [8]): 28%; Reduction (Mesocricetus auratus): 84%
CC(C)c1cccc(C(C)C)c1NC(=O)C1c2ccccc2CCc2ccccc21 | 40 | – | Reduction (Cricetinae gen. sp. [13]): 3%; Reduction (Cricetinae gen. sp. [2]): 89%
CC(C)(C)c1ccc2c(c1)C(C(=O)Nc1c(Cl)cccc1Cl)c1ccccc1CO2 (configuration not stated) | 420 | – | –
CC(C)c1cccc(C(C)C)c1NC(=O)C1c2ccccc2C(=O)N(C)c2ccc(Br)cc21 (configuration not stated) | 240 | – | –
Cc1ccc2c(c1)C(/C(S)=N/c1c(C(C)C)cccc1C(C)C)c1ccccc1CO2 (configuration not stated) | – | – | inhibition [16]: 15%

SMILES | IC50 [1] [nM] | Reduction (Cricetinae gen. sp. [3]) [%] | also measured
O=C(Nc1c(Cl)cccc1Cl)C1c2ccccc2COc2cc(Br)ccc21 (configuration not stated) | 940 | – | –
Cc1ccc2c(c1)C(C(=O)Nc1c(C)cccc1Cl)c1ccccc1CO2 (configuration not stated) | 260 | – | –
Cc1ccc2c(c1)C(C(=O)Nc1ccccc1C(C)C)c1ccccc1CO2 (configuration not stated) | 730 | 18 | –
CCc1cccc(CC)c1NC(=O)C1c2ccccc2COc2ccc(Br)cc21 (configuration not stated) | 250 | 64 | –
Cc1cc(C(=O)O)c2c(c1)C(C(=O)Nc1c(C(C)C)cccc1C(C)C)c1ccccc1CO2 (configuration not stated) | – | – | inhibition [15]: 28%
CCc1cccc(CC)c1NC(=O)C1c2ccccc2COc2ccc(C)cc21 (configuration not stated) | 270 | 49 | –
Cc1cccc(C)c1NC(=O)C1c2ccccc2COc2ccc(C(C)(C)C)cc21 (configuration not stated) | 500 | -42 | –
O=C(Nc1ccc(F)cc1F)C1c2ccccc2COc2ccc(Br)cc21 (configuration not stated) | 580 | – | –
CC(C)c1cccc(C(C)C)c1NC(=O)C1c2ccccc2COc2ccc(C(=O)O)cc21 (configuration not stated) | – | – | inhibition [15]: 1%
Cc1ccc2c(c1)C(C(=O)Nc1c(C(C)C)cccc1C(C)C)c1ccccc1CC2 (configuration not stated) | 55 | – | Reduction (Cricetinae gen. sp. [13]): -1%; Reduction (Cricetinae gen. sp. [2]): 93%
Cc1ccc2c(c1)C(C(=O)Nc1c(Cl)cccc1Cl)c1ccccc1CO2 (configuration not stated) | 190 | 25 | –
Cc1cccc(C)c1NC(=O)C1c2ccccc2COc2ccc(C(C)C)cc21 (configuration not stated) | 360 | – | –
Cc1ccc2c(c1)C(C(=O)Nc1c(C)cccc1C)c1ccccc1CO2 (configuration not stated) | 350 | 25 | –
CC(C)c1cccc(C(C)C)c1NC(=O)C1c2ccccc2OCc2ncccc21 (configuration not stated) | 640 | – | –
CC(C)c1cccc(C(C)C)c1NC(=O)C1c2ccccc2CCc2ccc(Br)cc21 (configuration not stated) | 39 | – | Reduction (Cricetinae gen. sp. [13]): 42%
CC(C)c1cccc(C(C)C)c1NC(=O)C1c2cc(Br)ccc2OCc2ncccc21 (configuration not stated) | 78 | – | Reduction (Mesocricetus auratus): 47%
